According to patent publication US7781591B2, “Substituted 3-cyanopyridines as protein kinase inhibitors” (Wyeth LLC, priority 2006, dated 2010):

These molecules were tested against T1, human PKCθ full length enzyme (Homo sapiens, UniProt Q04759) (assay: PKCθ IMAP assay (fluorescence polarization)). Conditions: human PKCθ full length enzyme, IMAP; average value; read-out: IC50 PKCθ IMAP.
T1 construct: human PKCθ full length enzyme (Panvera Cat# P2996); purchased Panvera P2996
Assay type: biochemical

T1 sequence (Q04759 whole entry): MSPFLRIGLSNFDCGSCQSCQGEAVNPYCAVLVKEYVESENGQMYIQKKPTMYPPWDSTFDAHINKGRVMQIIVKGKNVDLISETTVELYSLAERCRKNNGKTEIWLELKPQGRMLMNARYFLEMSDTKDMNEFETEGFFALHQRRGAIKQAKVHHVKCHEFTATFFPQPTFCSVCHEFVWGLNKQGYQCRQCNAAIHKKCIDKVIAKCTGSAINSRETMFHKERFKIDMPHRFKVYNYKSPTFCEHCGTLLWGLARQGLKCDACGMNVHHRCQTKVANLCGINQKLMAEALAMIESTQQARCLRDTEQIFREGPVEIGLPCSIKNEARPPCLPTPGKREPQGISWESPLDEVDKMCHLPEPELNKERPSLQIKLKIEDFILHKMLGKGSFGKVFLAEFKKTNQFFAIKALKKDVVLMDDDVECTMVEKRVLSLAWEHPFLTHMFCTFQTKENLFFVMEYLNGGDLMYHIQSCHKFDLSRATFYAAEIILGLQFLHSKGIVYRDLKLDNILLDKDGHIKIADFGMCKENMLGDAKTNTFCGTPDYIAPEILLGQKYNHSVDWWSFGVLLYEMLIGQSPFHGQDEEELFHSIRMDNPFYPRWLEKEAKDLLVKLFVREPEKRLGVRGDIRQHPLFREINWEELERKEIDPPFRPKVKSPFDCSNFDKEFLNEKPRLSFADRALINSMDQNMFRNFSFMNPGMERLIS

Row | IC50 | Molecule
1 | 120 nM | COCCNCCOc1cc(-c2cncc(C#N)c2Nc2ccc3[nH]ccc3c2)ccc1OC [Compound 182, 4-(1H-indol-5-ylamino)-5-(4-methoxy-3-{2-[(2-methoxyethyl)amino]ethoxy}phenyl)nicotinonitrile]
2 | 3 nM | Cc1c(Nc2c(C#N)cncc2-c2cc3cc(CNCc4ccccc4)ccc3s2)ccc2[nH]ccc12 [Compound 367, 5-{5-[(benzylamino)methyl]-1-benzothien-2-yl}-4-[(4-methyl-1H-indol-5-yl)amino]nicotinonitrile]
3 | 600 nM | CN(C)C(=O)c1cccc(-c2cncc(C#N)c2Nc2cccc3[nH]ccc23)c1 [Compound 312, 3-[5-cyano-4-(1H-indol-4-ylamino)pyridin-3-yl]-N,N-dimethylbenzamide]
4 | 40 nM | N#Cc1cncc(-c2cccc(-c3ccc(C(=O)NC4CCCC4)cc3)c2)c1Nc1cccc2[nH]ccc12 [Compound 148, 3′-[5-cyano-4-(1H-indol-4-ylamino)pyridin-3-yl]-N-cyclopentylbiphenyl-4-carboxamide]
5 | 320 nM | COc1ccc(-c2cncc(C#N)c2Nc2ccc3[nH]ccc3c2)cc1-c1cccc(Cl)c1 [Compound 191, 5-(3′-chloro-6-methoxybiphenyl-3-yl)-4-(1H-indol-5-ylamino)nicotinonitrile]
6 | 61 nM | COCCOc1ccc(-c2cncc(C#N)c2Nc2cnc3[nH]ccc3c2Cl)cc1OC [Compound 492, 4-[(4-chloro-1H-pyrrolo[2,3-b]pyridin-5-yl)amino]-5-[3-methoxy-4-(2-methoxyethoxy)phenyl]nicotinonitrile]
7 | 10 nM | N#Cc1cncc(-c2cc3ccccc3o2)c1Nc1ccc2[nH]ccc2c1 [Compound 268, 5-(1-benzofuran-2-yl)-4-(1H-indol-5-ylamino)nicotinonitrile]
8 | 3 nM | N#Cc1cncc(-c2ccc(OC[C@@H](N)Cc3ccccc3)cc2)c1Nc1cccc2[nH]ccc12 [Compound 226, 5-(4-{[(2S)-2-amino-3-phenylpropyl]oxy}phenyl)-4-(1H-indol-4-ylamino)nicotinonitrile]
9 | 20 nM | N#Cc1cccc(-c2cncc(C#N)c2Nc2cccc3[nH]ccc23)c1 [Compound 311, 5-(3-cyanophenyl)-4-(1H-indol-4-ylamino)nicotinonitrile]
10 | 20 nM | COc1cc(-c2cncc(C#N)c2Nc2ccc3[nH]ccc3c2C)ccc1OCCN1CCCCC1 [Compound 376, 5-[3-methoxy-4-(2-piperidin-1-ylethoxy)phenyl]-4-[(4-methyl-1H-indol-5-yl)amino]nicotinonitrile]
11 | 110 nM | Cc1c(Nc2c(C#N)cncc2-c2cccc(C(=O)O)c2)ccc2[nH]ccc12 [Compound 556, 3-{5-cyano-4-[(4-methyl-1H-indol-5-yl)amino]pyridin-3-yl}benzoic acid]
12 | 16 nM | COc1ccc(-c2cncc(C#N)c2Nc2cc(Cl)c3[nH]ccc3c2C)cc1OC [Compound 498, 4-[(7-chloro-4-methyl-1H-indol-5-yl)amino]-5-(3,4-dimethoxyphenyl)nicotinonitrile]
13 | 30 nM | COc1ccc(-c2cncc(C#N)c2Nc2cccc3[nH]ccc23)cc1OCCNCCO [Compound 249, 5-(3-{2-[(2-hydroxyethyl)amino]ethoxy}-4-methoxyphenyl)-4-(1H-indol-4-ylamino)nicotinonitrile]
14 | 36 nM | CC(=O)Nc1ccccc1-c1cncc(C#N)c1Nc1ccc2[nH]ccc2c1C [Compound 577, N-(2-{5-cyano-4-[(4-methyl-1H-indol-5-yl)amino]pyridin-3-yl}phenyl)acetamide]
15 | 46 nM | Cc1c(Nc2c(C#N)cncc2-c2cccc3[nH]ccc23)ccc2[nH]ccc12 [Compound 595, 5-(1H-indol-4-yl)-4-(4-methyl-1H-indol-5-ylamino)nicotinonitrile]
16 | 2020 nM | COc1ccc(-c2cncc(C#N)c2Nc2cnc3[nH]ccc3c2)cc1OC [Compound 488, 5-(3,4-dimethoxyphenyl)-4-(1H-pyrrolo[2,3-b]pyridin-5-ylamino)nicotinonitrile]
17 | 2 nM | Cc1c(Nc2c(C#N)cncc2-c2cc3cc(CNCCCO)ccc3o2)ccc2[nH]ccc12 [Compound 384, 5-(5-{[(3-hydroxypropyl)amino]methyl}-1-benzofuran-2-yl)-4-[(4-methyl-1H-indol-5-yl)amino]nicotinonitrile]
18 | 10 nM | COc1ccc(-c2cncc(C#N)c2Nc2cccc3[nH]ccc23)cc1OCCNCCCN1CCOCC1 [Compound 364, 4-(1H-indol-4-ylamino)-5-(4-methoxy-3-{2-[(3-morpholin-4-ylpropyl)amino]ethoxy}phenyl)nicotinonitrile]
19 | 110 nM | CC(=O)c1ccc(-c2cccc(-c3cncc(C#N)c3Nc3ccc4[nH]ccc4c3)c2)s1 [Compound 140, 5-[3-(5-acetyl-2-thienyl)phenyl]-4-(1H-indol-5-ylamino)nicotinonitrile]
20 | 200 nM | COc1ccc(-c2cncc(C#N)c2Nc2c(C)ccc3[nH]ccc23)cc1OC [Compound 336, 5-(3,4-dimethoxyphenyl)-4-[(5-methyl-1H-indol-4-yl)amino]nicotinonitrile]

Row | IC50 | Molecule
21 | 36 nM | Cc1c(Nc2c(C#N)cncc2-c2cnc(CN3CCN(C)CC3)n2C)ccc2[nH]ccc12 [Compound 539, 4-[(4-methyl-1H-indol-5-yl)amino]-5-{1-methyl-2-[(4-methylpiperazin-1-yl)methyl]-1H-imidazol-5-yl}nicotinonitrile]
22 | 4 nM | COc1ccc(-c2cncc(C#N)c2Nc2cccc3[nH]ccc23)cc1OCCNCCc1cccnc1 [Compound 354, 4-(1H-indol-4-ylamino)-5-(4-methoxy-3-{2-[(2-pyridin-3-ylethyl)amino]ethoxy}phenyl)nicotinonitrile]
23 | 4 nM | N#Cc1cncc(-c2cc3cc(CO)ccc3s2)c1Nc1cccc2[nH]ccc12 [Compound 285, 5-[5-(hydroxymethyl)-1-benzothien-2-yl]-4-(1H-indol-4-ylamino)nicotinonitrile]
24 | 9320 nM | COc1ccc(-c2cncc(C#N)c2Nc2ccc3c(c2)CCC3)cc1OC [Compound 107, 4-(2,3-dihydro-1H-inden-5-ylamino)-5-(3,4-dimethoxyphenyl)nicotinonitrile]
25 | 1130 nM | COc1ccc(-c2cncc(C#N)c2NC[C@H]2CCC[C@@H](CN)C2)cc1OC (relative stereo) [Compound 443, 4-({[cis-3-(aminomethyl)cyclohexyl]methyl}amino)-5-(3,4-dimethoxyphenyl)nicotinonitrile]
26 | 4 nM | Cc1c(Nc2c(C#N)cncc2-c2ccc(OCCNCCO)cc2)ccc2[nH]ccc12 [Compound 414, 5-(4-{2-[(2-hydroxyethyl)amino]ethoxy}phenyl)-4-[(4-methyl-1H-indol-5-yl)amino]nicotinonitrile]
27 | 7 nM | Cc1c(Nc2c(C#N)cncc2-c2nccs2)ccc2[nH]ccc12 [Compound 541, 4-[(4-methyl-1H-indol-5-yl)amino]-5-(1,3-thiazol-2-yl)nicotinonitrile]
28 | 20 nM | COc1ccc(-c2cncc(C#N)c2Nc2cccc3[nH]ccc23)cc1 [Compound 323, 4-(1H-indol-4-ylamino)-5-(4-methoxyphenyl)nicotinonitrile]
29 | 1 nM | Cc1c(Nc2c(C#N)cncc2-c2cc3ccccc3o2)ccc2[nH]ccc12 [Compound 222, 5-(1-benzofuran-2-yl)-4-[(4-methyl-1H-indol-5-yl)amino]nicotinonitrile]
30 | 3860 nM | N#Cc1cncc(-c2cncnc2)c1Nc1ccc2[nH]ccc2c1 [Compound 265, 4-(1H-indol-5-ylamino)-5-pyrimidin-5-ylnicotinonitrile]
31 | 84 nM | Cc1cc2[nH]ccc2cc1Nc1c(C#N)cncc1-c1ccc(OCCN2CCCCC2)cc1 [Compound 504, 4-[(6-methyl-1H-indol-5-yl)amino]-5-[4-(2-piperidin-1-ylethoxy)phenyl]nicotinonitrile]
32 | 20 nM | CS(=O)(=O)Nc1cccc(-c2cncc(C#N)c2Nc2cccc3[nH]ccc23)c1 [Compound 256, N-{3-[5-cyano-4-(1H-indol-4-ylamino)pyridin-3-yl]phenyl}methanesulfonamide]
33 | 120 nM | N#Cc1cncc(-c2cccc(-c3ccc(C=O)s3)c2)c1Nc1ccc2[nH]ccc2c1 [Compound 150, 5-[3-(5-formyl-2-thienyl)phenyl]-4-(1H-indol-5-ylamino)nicotinonitrile]
34 | 20 nM | Cc1c(Nc2c(C#N)cncc2-c2ccc(O)cc2)ccc2[nH]ccc12 [Compound 374, 5-(4-hydroxyphenyl)-4-[(4-methyl-1H-indol-5-yl)amino]nicotinonitrile]
35 | 80 nM | COc1ccc(-c2cncc(C#N)c2Nc2ccc3[nH]ccc3c2)cc1OCCNCc1ccccn1 [Compound 241, 4-(1H-indol-5-ylamino)-5-(4-methoxy-3-{2-[(pyridin-2-ylmethyl)amino]ethoxy}phenyl)nicotinonitrile]
36 | 12 nM | Cc1c(Nc2c(C#N)cncc2-c2ccsc2)ccc2[nH]ccc12 [Compound 562, 4-[(4-methyl-1H-indol-5-yl)amino]-5-(3-thienyl)nicotinonitrile]
37 | 737 nM | COc1ccc(-c2c[n+]([O-])cc(C#N)c2Nc2ccc3[nH]ccc3c2)cc1OC [Compound 523, 5-(3,4-dimethoxyphenyl)-4-(1H-indol-5-ylamino)nicotinonitrile 1-oxide]
38 | 20 nM | N#Cc1cncc(-c2cc3ccccc3s2)c1Nc1cccc2[nH]ccc12 [Compound 322, 5-(1-benzothien-2-yl)-4-(1H-indol-4-ylamino)nicotinonitrile]
39 | 1 nM | Cc1c(Nc2c(C#N)cncc2-c2cc3cc(CN4CCC(N5CCCC5)CC4)ccc3o2)ccc2[nH]ccc12 [Compound 393, 4-[(4-methyl-1H-indol-5-yl)amino]-5-{5-[(4-pyrrolidin-1-ylpiperidin-1-yl)methyl]-1-benzofuran-2-yl}nicotinonitrile]
40 | 215 nM | Cc1c(Nc2c(C#N)cncc2-c2cnc(N3CCCC3)nc2)ccc2[nH]ccc12 [Compound 512, 4-[(4-methyl-1H-indol-5-yl)amino]-5-(2-pyrrolidin-1-ylpyrimidin-5-yl)nicotinonitrile]

Row | Molecule | IC50
41 | 5-(2,4-dimethoxyphenyl)-4-(1H-indol-4-ylamino)nicotinonitrile [Compound 337] | 100 nM
